Data: patent publication US20220347167A1, “A NEW TREATMENT FOR MEIBOMIAN GLAND DYSFUNCTION” (The Schepens Eye Research Institute, Inc., priority 2019, published 2022)

System: HIF1α
Test: HIF1α expression in CoCl2-stimulated HepG2 cells (positive control for HIF1α antibody)
Format: cell-based, human
Conditions: 4 hours of CoCl2 treatment
Method: After culture in DMEM/F12+10% FBS under normoxic conditions for 7 days, cells were exposed to 21% O2, 1% O2 and 10 μM Roxa, alone or in combination, for an additional 6 hours. The cells were lysed in 2× Laemmli sample buffer (Bio-Rad Laboratories, Hercules, Calif.) and sonicated to extract nuclear protein [Andersen et al. (2002) Current biology: CB 12:1-11]. Human hepatocellular carcinoma cell lines (HepG2 cells) (America Type Culture Collection, Manassas, Va.), which express high concentration of HIF1α under CoCl2 stimulation for 4 hours [Yoo et al. (2014) Journal of cellular biochemistry 115:1147-1158], were used as a positive control for HIF1α antibody. The CoCl2 was purchased from Sigma-Aldrich Corp (St. Louis, Mo.). Cell lysates were then evaluated for HIF1α (1:1000, BD Biosciences, San Jose, Calif.) or β-actin (1:10,000, Cell Signaling Technology) expression. Secondary antibodies were horseradish peroxidase (HRP)-conjugated goat anti-rabbit or goat anti-mouse IgG (both 1:5000, Sigma-Aldrich). Densitometry was performed using ImageJ (at the World Wide Web website of rsb.info.nih.gov/ij).

[Cl-].[Cl-].[Co+2] [CoCl2, cobalt (II) chloride]
HIF1α protein in HepG2 cell lysates: substantial amounts of HIF1α protein
